Results as given in patent US20030086928A1, “Compositions associated with complex formation and methods of use thereof” (priority 2000, published 2003).

Assays:
[1] = tested on: phospho (Ser133) CREB in D5 cells; assay: Ser133 phosphorylation of CREB in D5 cells (Western blot / immunofluorescence with antiserum 5322); format: cell-based
Protocol: (§1) D5 cells were grown on glass coverslips and stimulated with forskolin and 3-isobutyl-1-methylxanthine (IBMX) or 12-O-tetradecanoyl phorbol acetate (TPA) for 10 minutes. The cells were methanol-fixed at […] for 5 min followed by three 5 min washes in PBS. Cells were blocked for 30 min with 3% BSA in PBS and donkey serum diluted 1:50. Primary antibodies were diluted in 3% BSA/PBS to 1:2000 for the phospho-CREB specific antibody 5322 or 1:100 (3 μg/ml) for the KID/KIX specific antibody. The cells were incubated with the primary antibodies for 1 hr at RT, followed by 3 washes with PBS and a 1 hr incubation with Biotin-SP-conjugated Donkey anti rabbit IgG diluted 1:200 in 3% BSA/PBS. After 3 washes in PBS, Texas Red conjugated Streptavidin was added at 1:200 dilution in 3% BSA/PBS. After one hour incubation, cells were washed 3 times in PBS and mounted in 90% glycerol/PBS containing 1 mg/ml phenylenediamine.
In addition to cAMP, other stimuli such as the phorbol ester TPA can promote Ser133 phosphorylation of CREB; yet these stimuli are unable to induce target gene activation via CBP, reflecting either a block in CREB:CBP complex formation or in the subsequent recruitment of the transcriptional apparatus. […]

[2] = tested on: somatostatin mRNA in D5 cells; assay: Northern blot of somatostatin mRNA in D5 cells; format: cell-based, rat; details: 4 hours
From the text: In addition to cAMP, other stimuli such as the phorbol ester TPA can promote Ser133 phosphorylation of CREB; yet these stimuli are unable to induce target gene activation via CBP, reflecting either a block in CREB:CBP complex formation or in the subsequent recruitment of the transcriptional apparatus. To evaluate formation of CREB:CBP complexes in vivo, NIH 3T3 cells expressing chromosomal copies of the rat somatostatin gene, hereafter referred to as D5 cells (Montminy et al. (1986) J Neurosci 6:803-813) were used. […] Western blot assays of total CREB and phospho (Ser133) CREB (P-CREB) levels were performed in control (C) or treated D5 cells exposed to either forskolin (F) or TPA (T) for 30 minutes. Northern blot assays were then performed to detect somatostatin (SOM) and tubulin (TUB) mRNA levels in control D5 cells (C) and in D5 cells treated with forskolin (F) or TPA (T) for 4 hours.

[3] = tested on: T1, CREB:CBP complexes in D5 cells; assay: Immunofluorescence of CREB:CBP complexes in D5 cells with αKK antiserum; format: cell-based; details: 10 minutes
T1 construct: endogenous in cells; host or cells: D5 cells (NIH 3T3 with rat somatostatin gene)
Protocol: as §1
D5 cells were then treated with forskolin or TPA for 10 minutes.

T1 sequence (Q01147 whole entry): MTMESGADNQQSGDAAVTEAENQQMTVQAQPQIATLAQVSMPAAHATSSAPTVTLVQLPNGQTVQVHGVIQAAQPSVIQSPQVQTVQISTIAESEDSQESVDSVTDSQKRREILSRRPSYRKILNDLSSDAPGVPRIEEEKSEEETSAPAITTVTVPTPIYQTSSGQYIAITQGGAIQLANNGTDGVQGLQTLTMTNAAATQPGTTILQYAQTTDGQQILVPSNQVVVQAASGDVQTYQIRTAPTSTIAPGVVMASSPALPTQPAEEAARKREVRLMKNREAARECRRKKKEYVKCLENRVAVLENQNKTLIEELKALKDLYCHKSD
T1 sequence (P45481 2-2441 limits assumed, further chain): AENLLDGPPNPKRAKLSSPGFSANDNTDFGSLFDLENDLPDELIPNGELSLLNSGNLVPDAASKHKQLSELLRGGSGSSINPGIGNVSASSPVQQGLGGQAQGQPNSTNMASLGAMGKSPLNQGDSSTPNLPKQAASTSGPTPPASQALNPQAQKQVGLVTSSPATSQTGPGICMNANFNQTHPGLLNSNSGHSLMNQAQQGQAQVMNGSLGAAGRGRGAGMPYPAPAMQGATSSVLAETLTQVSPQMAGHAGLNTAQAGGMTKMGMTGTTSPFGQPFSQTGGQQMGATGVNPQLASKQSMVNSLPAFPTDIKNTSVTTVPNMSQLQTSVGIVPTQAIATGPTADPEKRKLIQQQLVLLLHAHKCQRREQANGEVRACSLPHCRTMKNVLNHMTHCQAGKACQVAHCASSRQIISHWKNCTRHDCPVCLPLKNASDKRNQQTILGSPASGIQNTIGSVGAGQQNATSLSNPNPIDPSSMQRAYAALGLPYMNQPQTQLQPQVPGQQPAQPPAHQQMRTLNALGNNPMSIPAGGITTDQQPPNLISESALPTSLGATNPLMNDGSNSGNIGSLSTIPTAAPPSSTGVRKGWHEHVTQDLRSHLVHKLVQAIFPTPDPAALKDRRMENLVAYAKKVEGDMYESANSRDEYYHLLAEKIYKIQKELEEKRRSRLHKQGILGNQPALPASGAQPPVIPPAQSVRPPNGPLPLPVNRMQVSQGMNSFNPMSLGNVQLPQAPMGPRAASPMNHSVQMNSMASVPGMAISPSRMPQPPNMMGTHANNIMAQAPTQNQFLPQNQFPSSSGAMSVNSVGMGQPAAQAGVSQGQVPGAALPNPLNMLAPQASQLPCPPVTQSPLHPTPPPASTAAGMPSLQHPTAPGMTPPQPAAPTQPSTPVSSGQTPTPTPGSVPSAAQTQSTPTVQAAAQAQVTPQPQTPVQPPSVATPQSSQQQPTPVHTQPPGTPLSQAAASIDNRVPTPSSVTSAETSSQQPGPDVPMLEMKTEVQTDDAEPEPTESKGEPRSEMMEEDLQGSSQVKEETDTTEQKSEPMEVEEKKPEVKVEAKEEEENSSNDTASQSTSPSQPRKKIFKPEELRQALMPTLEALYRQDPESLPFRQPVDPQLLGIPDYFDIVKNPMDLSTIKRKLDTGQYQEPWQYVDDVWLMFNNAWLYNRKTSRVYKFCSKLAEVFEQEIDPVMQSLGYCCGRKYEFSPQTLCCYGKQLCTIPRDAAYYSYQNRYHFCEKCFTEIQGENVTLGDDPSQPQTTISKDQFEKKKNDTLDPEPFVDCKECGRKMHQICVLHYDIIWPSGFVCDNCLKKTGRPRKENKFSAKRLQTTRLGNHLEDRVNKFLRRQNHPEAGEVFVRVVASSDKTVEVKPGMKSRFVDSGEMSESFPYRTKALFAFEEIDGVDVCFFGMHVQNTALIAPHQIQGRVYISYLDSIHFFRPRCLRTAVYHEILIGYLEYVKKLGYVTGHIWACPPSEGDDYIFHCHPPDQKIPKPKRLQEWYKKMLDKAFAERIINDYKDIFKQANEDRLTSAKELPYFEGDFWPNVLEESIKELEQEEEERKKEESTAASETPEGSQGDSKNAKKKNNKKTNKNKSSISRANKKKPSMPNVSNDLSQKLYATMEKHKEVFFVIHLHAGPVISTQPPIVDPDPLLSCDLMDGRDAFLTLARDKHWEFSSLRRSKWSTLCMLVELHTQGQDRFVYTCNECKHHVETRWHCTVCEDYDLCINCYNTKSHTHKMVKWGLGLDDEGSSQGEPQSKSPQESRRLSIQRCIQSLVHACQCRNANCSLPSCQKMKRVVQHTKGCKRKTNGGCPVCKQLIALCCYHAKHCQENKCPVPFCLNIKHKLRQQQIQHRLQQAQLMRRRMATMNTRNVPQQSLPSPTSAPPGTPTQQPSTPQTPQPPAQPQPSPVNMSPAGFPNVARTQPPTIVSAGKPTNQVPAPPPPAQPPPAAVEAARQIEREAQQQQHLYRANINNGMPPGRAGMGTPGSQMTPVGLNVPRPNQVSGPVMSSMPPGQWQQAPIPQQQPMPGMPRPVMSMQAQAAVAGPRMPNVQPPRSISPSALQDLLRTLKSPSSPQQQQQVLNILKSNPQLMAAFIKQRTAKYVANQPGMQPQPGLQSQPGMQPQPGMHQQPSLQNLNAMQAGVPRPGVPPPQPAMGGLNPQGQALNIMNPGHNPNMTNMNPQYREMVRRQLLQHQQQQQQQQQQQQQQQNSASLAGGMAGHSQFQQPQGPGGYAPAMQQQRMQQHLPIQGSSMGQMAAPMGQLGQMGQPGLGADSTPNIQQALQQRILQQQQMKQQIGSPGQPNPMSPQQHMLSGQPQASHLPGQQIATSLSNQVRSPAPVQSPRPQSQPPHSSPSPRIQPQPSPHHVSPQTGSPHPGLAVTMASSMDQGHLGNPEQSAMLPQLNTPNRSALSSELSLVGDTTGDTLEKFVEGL

Structure (SMILES)	accumulation of phospho (Ser133) CREB ([1]; 10 minutes, immunofluorescence)	Ser133 phosphorylation of CREB ([1]; 30 minutes, Western blot with antiserum 5322)	somatostatin mRNA accumulation [2]	CREB:CBP complex formation detected with αKK antiserum [3]
CCCCCCCCCCCCCC(=O)O[C@@H]1[C@@H](C)[C@@]2(O)[C@@H](C=C(CO)C[C@]3(O)C(=O)C(C)=C[C@@H]23)[C@@H]2C(C)(C)[C@]12OC(C)=O [TPA, 12-O-tetradecanoyl phorbol acetate]	comparable levels of Ser133 phosphorylation	induced Ser133 phosphorylation of CREB with comparable stoichiometry to forskolin induction	no discernible effect	no CREB:CBP complexes were detected
C=C[C@@]1(C)CC(=O)[C@]2(O)[C@@]3(C)[C@@H](O)CCC(C)(C)[C@@H]3[C@H](O)[C@H](OC(C)=O)[C@@]2(C)O1 [forskolin]			5 fold	
